Measurements published in patent US10835533B2, “1 -((3S,4R)-4-(3-fluorophenyl)-1-(2-methoxyethyl)pyrrolidin-3-yl)-3-(4-methyl-3-(2-methylpyrimidin-5-yl)-1-phenyl-1H-pyrazol-5-yl)urea as a TrkA kinase inhibitor” (Array BioPharma Inc., priority 2014, dated 2020).

Experiment: IV clearance, 1 mg/kg IV, rat
Format: in vivo
Conditions: for in vivo/in vitro correction factor: microsomal CLh divided by IV CL; for clearance: plasma, 1 mg/kg IV
Procedure: In Table 1, the predicted human IV clearance values were calculated from compound concentration-versus-time data in plasma collected from pre-clinical species (mouse, rat, dog and monkey) following 1 mg/kg intravenous (IV) doses. Concentrations of compound in plasma were measured by LC-MS (liquid chromatography-mass spectrometry). AUCinf values (Area under the plasma concentration-time curve for a dosing interval from time 0 extrapolated to infinity) for individual Cp/t curves (concentration of the drug in plasma at any time t) were determined using linear-trapezoidal integration and first order extrapolation from terminal points of the Cp/t curves, and clearance (CL) was calculated using Dose/AUCinf.
Each of Compound 1, Compound 2, and Compound 3 was formulated by adding the compound (dry) to 20% Trappsol® (hydroxypropyl Beta cyclodextrin; CDT, Inc.) (aq) pH 5.0 and vortexing until a homogeneous suspension (PO) or solution (IV) was achieved.
For intravenous dosing, animals were anesthetized with 3% isoflurane, balanced O2. 1 mg/kg of Compound 1, Compound 2, and Compound 3 was administered at a dose volume of 1 mL/kg to the lateral tail vein. Blood was drawn from the opposite lateral tail vein while the animal was under anesthesia (3% isoflurane balanced with O2, 0.2 mL/timepoint) into NaEDTA tubes (1.5% v/v) at the following time points: 1, 5, 15, 30 minutes, and 1, 2, 4, 8 and 24 hours, and mixed thoroughly.
A single 12-point calibration curve was prepared by first serially diluting (3-fold) a 40-μg/mL stock solution of Compound 1, Compound 2, and Compound 3 in DMSO to provide standard solutions. Plasma (20 μL) was then added to the extraction plate, and 2.5 μL of each standard solution was added to the naïve plasma. A stock solution of an internal standard (10.0 μL of 2.5 μg/mL in acetonitrile) subsequently was added to each standard and sample solution. Proteinaceous material was precipitated from 20 μL of plasma with the addition of 317.5 μL of acetonitrile for a total volume of 350 μL. Samples were vortex-mixed for 5 minutes and spun in an Allegra X-12R centrifuge (Beckman Coulter, Fullerton, Calif.) for 15 minutes at approximately 1,500×g at 4° C. A 100-μL aliquot of each supernatant was transferred via a 550 μL Personal Pipettor (Apricot Designs, Monrovia, Calif.) to 96-well plates and diluted 1:1 with HPLC grade water. The resulting plates were sealed with plate mats and the amount of Compound 1n the plasma was analyzed by LC-MS/MS.
The LC-MS/MS system was comprised of an HTC-PAL autosampler (Leap Technologies, Inc., Carrboro, N.C.), an HP1100 HPLC (Agilent Technologies Inc., Santa Clara, Calif.), and an API4000 triple quadrupole mass spectrometer (Applied Biosystems, Foster City, Calif.). Chromatographic retention of the analyte and internal standard was achieved using a Phenomenex® Synergi 4μ Hydro-RP 80A column (2.1×30 mm, 4 μm particle size; Phenomenex, Torrance, Calif.) in conjunction with gradient conditions using mobile phases A (10 mM ammonium acetate in aqueous 0.1% formic acid and 1% isopropyl alcohol) and B (10 mM ammonium acetate in 89.9% acetonitrile, 10% methanol, 0.1% formic acid). The total run time, including re-equilibration time, for a single injection was 3.5 minutes and the flow rate was 0.8 mL/minute. Solvent B was increased from 5 to 95% in 1.0 minute, held at 95% for 1.0 minute, and then decreased to 5% in 0.1 minute.
The total run time, including re-equilibration time, for a single injection was 3.5 minutes and the flow rate was 0.8 mL/min. Solvent B was increased from 5 to 95% in 1.0 minutes, held at 95% for 1.0 minute, and then decreased to 5% in 0.1 minute. Mass spectrometric detection of the analytes was accomplished using ESI+ ionization mode. Ion current was optimized during infusion of a stock solution of Compound 1, Compound 2, and Compound 3. Analyte responses were measured by multiple reaction monitoring (MRM) of transitions unique to each compound. […]

in vivo/in vitro correction factor | clearance [mL/min/kg] | Structure (SMILES)
1.47 | 15 | COCCN1C[C@@H](NC(=O)Nc2c(C)c(-c3cnc(C)nc3)nn2-c2ccccc2)[C@H](c2cccc(F)c2)C1 [Compound 1, 1-((3S,4R)-4-(3-fluorophenyl)-1-(2-methoxyethyl)pyrrolidin-3-yl)-3-(4-methyl-3-(2-methylpyrimidin-5-yl)-1-phenyl-1H-pyrazol-5-yl)urea]
0.76 | 29 | COCCN1C[C@@H](NC(=O)Nc2c(C)c(-c3cnc(C)nc3)nn2-c2ccccc2)[C@H](c2ccc(F)c(F)c2)C1 [Compound 2, 1-((3S,4R)-4-(3,4-difluorophenyl)-1-(2-methoxyethyl)pyrrolidin-3-yl)-3-(4-methyl-3-(2-methylpyrimidin-5-yl)-1-phenyl-1H-pyrazol-5-yl)urea]
0.88 | 26 | COCCN1C[C@@H](NC(=O)Nc2c(C)c(-c3cnn(C)c3)nn2-c2ccccc2)[C@H](c2ccc(F)cc2)C1 [Compound 3, 1-(1′,4-dimethyl-1-phenyl-1H,1′H-[3,4′-bipyrazol]-5-yl)-3-((3S,4R)-4-(4-fluorophenyl)-1-(2-methoxyethyl)pyrrolidin-3-yl)urea]
